# Values joined by “and” are separate entries in the source; they are usually repeats but may differ in a detail not shown here. Identical values can stand only once.
# Experiments:
# [1] = test system: PaTu-T cells; assay: Zebrafish embryo xenotransplantation: invasion and metastatic behaviour of pretreated PaTu-T cells; format: in vivo, human
# Method: Zebrafish (Danio rerio) (Tuebingen line, AIB strain (Albinos) and Tg (fli1:eGFP) were handled in compliance with local animal care regulations and standard protocols of the Netherlands and Germany. Fish were kept at 28°C in aquaria with day/night light cycles (10 h dark versus 14 h light periods). The developing embryos were kept in an incubator at constant temperatures.
# The selective RARα antagonist Ro-41-5253 was purchased from Biomol International, dissolved in DMSO and cells were treated overnight prior to injections at a final concentration of 200 nM (50% inhibition at 60nM)^14,15. Retinoic acid (ATRA, Sigma) was added to cells ON at a final concentration of 1 µM.
# Cells were stained with CM-Dil (red fluorescence) at a 1:1000 dilution according to the manufacturers protocol (Vybrant, Invitrogen). Cells were suspended in 67% DPBS for injection into embryos. 2dpf zebrafish embryos were dechorionated and tranquilized with tricaine (Sigma). An injection needle (15µm diameter) with a manual injector (Eppendorf; Celltram Vario) was used to inject ∼200 cells into the yolk sac of 2dpf zebrafish embryos. On average 80 embryos were injected for each treatment and embryos with detectable cell scatter 2 h after the transfer (and therefore presumably due to the transfer procedure) were excluded from further analysis. Presence of cells was checked after 2 h incubation at 31°C and embryos were subsequently kept at 35°C. We defined metastasis based on the number of fluorescent cells that were detected outside the yolk sac 2 days after the transfer. Presence of 5 or more cells was considered "metastasised" and percentages of metastasised fish in each experiment were counted. The occurence of micro-metastasis is indicated by cell clusters of ≥4 cells presumably originating from cell division. PaTu-S cells and ASPC1 cells were transfected ON with indicated concentrations of miR-10a siRNA in the presence of ICA-Fectin TM442 (Eurogentec, Belgium). Whole cell lysates were prepared 36h post-transfection and 40 µg of total lysates were separated on 7.5% PAA-gels and blotted with anti E-cadherin, α-catenin, β-catenin (all mAbs, Transduction Labs) and actin antibodies (mAb Sigma-Aldrich, Germany).
# Morpholino antisense oligonucleotides were obtained from Gene Tools, LLC (OR, USA) and used as previously described^19. The miR-10a antisense Morpholino sequence is: […]. Standard control Morpholino was […]. Both miR-10a and control Morpholinos were fluorescein labeled. The siRNAs for human HOXB1, human HOXB3 and human RARα were purchased from Santa Cruz Biotechnology (HOXB1: sc-38686, HOXB3: sc-38690 and RARα: sc-29465). EndoPorter (Gene Tools, LLC) was used to deliver Morpholinos and siRNAs into cells and efficiencies for Morpholinos were checked by fluorescence microscopy to be >98%. For the miR-10a siRNA, the sense strand corresponds to […]. The sequence of control siRNA (miR-196a) was […] with the corresponding antisense sequence). 30 µl of each siRNA oligo (50 µM) were annealed by gradually cooling from 98°C to 20°C in a volume of 75 µl annealing buffer (50 mM Tris, pH 7.8, 100 mM NaCl RNAse free). The effect of miR-10a Morpholinos on miR-10a function was tested with a sensor construct: pCS2+ EGFP 4x miR-10 AS containing 4 copies of a miR-10a antisense sequence.
# [2] = test system: miR-10a; assay: Northern blot of miR-10a expression in PaTu-T cells (densitometry); format: cell-based, human; conditions: for miR-10a expression: result in words
# Method: Northern Blot analysis was performed essentially according to Kloosterman et al. ^16 using a miR-10 LNA probe ([…]) (Exiqon, Denmark). We had previously described protocols for RT-PCR^17 and RT-qPCR^18 . Primers for the RT-PCR were: HOXB1: sc-38686 and HOXB3: sc-38690-PR and RARα: sc-29465-PR all from Santa Cruz Biotechnology. For quantitative RT-PCR we used 100 ng of total RNA and the Roche Master SYBR Green kit. Single-band amplification was verified by melting curve dissociation protocols. A standard curve for β-actin using 1, 5, 10, 100, and 500 ng of total RNA was used for normalization. RT-qPCR primers for HOXB1 were: forward 5'-[…]-3' and reverse 5'-[…]-3' and for HOXB3: forward 5'-[…]-3' and reverse 5'-[…]-3'.
# PaTu-T cells were incubated as indicated, with DMSO (Co), 200 nM Ro-41-5253 (RARα inh), control-Morpholino, miR-10a Morpholino, miR-196 siRNA (Co), or RARα siRNA and PaTu-S cells were co-incubated with 1 µM retinoic acid (RA) and control siRNA, RARα siRNA or Ro-415253 and miR-10a expression was evaluated by Northern blot analysis (A). […] RT-PCR control of GAPDH was used as a loading control (not shown). Dose response curves for RA and the RARα antagonist and the RT-PCR control for RARα siRNA treatment are shown in Supplemental Fig. 1. The effect of Ro-415253 on cell migration was analysed in an in vitro migration assay in PaTu-T cells. […] An actin re-blot confirmed equal loading.
# PaTu-T cells were incubated for 24h with indicated concentrations of Ro-415253 and miR-10a expression was evaluated by northern blot analysis (upper panel). GAPDH loading control is shown in the lower panel. […] Patu-S cells were incubated tor 24h with indicated concentrations of ATRA and miR-10a expression was evaluated by northern blot analysis (upper panel). GAPDH loading control is shown in the lower panel. (C) Specific "knockdown" of RARα in PaTu-Tcells by RARα siRNA. RT-PCR from total RNA of RARα or control siRNA (Co) treated PaTu-T cells (24h) confirms specific knockdown of RARa. RT-PCR of GAPDH control is shown in the lower panel.
# [3] = Experiment 1, Day 1, number of embryos
# [4] = Experiment 1, Day 2, number of embryos
# [5] = Experiment 1, Day 3, number of embryos
# [6] = Experiment 2, Day 1, number of embryos
# [7] = Experiment 2, Day 2, number of embryos
# [8] = Experiment 2, Day 3, number of embryos
smiles,measurement,setting,value
"CCCCCCCOc1cc2c(cc1/C(C)=C/c1ccc(C(=O)O)cc1)C(C)(C)CCS2(=O)=O [Ro-41-5253, Benzoic acid, 4-(2-(7-(heptyloxy)-3,4-dihydro-4,4-dimethyl-2H-1-benzothiopyran-6-yl)-1-propenyl)-, S,S-dioxide, (E)]",total >5,"[1]; Experiment 1, number of embryos (equals the Day 1 total)",1
same,Migration 5 to 20,[1]; [3],1
same,Migration <5,[1]; [3],0
same,Migration >20,[1]; [3],0
same,total >5,[1]; [3],1
same,Migration 5 to 20,[1]; [4],0
same,Migration <5,[1]; [4],0
same,Migration >20,[1]; [4],0
same,total >5,[1]; [4],0
same,Migration 5 to 20,[1]; [5],0
same,Migration <5,[1]; [5],0
same,Migration >20,[1]; [5],0
same,total >5,[1]; [5],0
same,total >5,"[1]; Experiment 1, summary line, percentage in brackets (of embryos alive)",1.4%
same,total >5,"[1]; Experiment 2, number of embryos (equals the Day 1 total)",2
same,Migration 5 to 20,[1]; [6],2
same,Migration <5,[1]; [6],0
same,Migration >20,[1]; [6],0
same,total >5,[1]; [6],2
same,Migration 5 to 20,[1]; [7],2
same,Migration <5,[1]; [7],0
same,Migration >20,[1]; [7],0
same,total >5,[1]; [7],2
same,Migration 5 to 20,[1]; [8],0
same,Migration <5,[1]; [8],0
same,Migration >20,[1]; [8],0
same,total >5,[1]; [8],0
same,total >5,"[1]; Experiment 2, summary line, percentage in brackets (of embryos alive)",2.9%
same,Average % (observed metastasised embryos),"[1]; Table 1, pretreated PaTu-T cells transplanted into zebrafish embryos, average of 2-4 experiments",2.2%
same,"%migration, Average","[1]; average of experiments, PaTu-T",2.2%
same,%migration,"[1]; single experiments, PaTu-T, listed as RARαinhibitor",1.4% and 2.9%
same,reduction of miR-10a expression,"[2]; densitometric analysis, Ro-41-5253 at 200 nM",9.4 fold
same,miR-10a expression,[2],significant decrease
same,miR-10a expression,[2]; listed as Ro-415253,Dose dependent repression
